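How tested: cells in 96-well plates exposed to compound for 48 hours at five concentrations. Abbreviation: GI50, concentration required for 50% inhibition of growth. TGI: total growth inhibition.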
Experiments:
Assay in all cases: DTP human tumour cell line panel, 48 h
[1] = test system: OVCAR-3 ovarian
[2] = test system: TK-10 renal
[3] = test system: HCC-2998 colon
[4] = test system: SK-MEL-28 melanoma
[5] = test system: ACHN renal
[6] = test system: SK-MEL-2 melanoma
[7] = test system: K-562 leukemia
[8] = test system: MOLT-4 leukemia
[9] = test system: COLO 205 colon
[10] = test system: SR leukemia

SMILES	GI50 [1] [µM]	TGI [1] [µM]	GI50 [2] [µM]	TGI [2] [µM]	GI50 [3] [µM]	TGI [3] [µM]	GI50 [4] [µM]	TGI [4] [µM]	GI50 [5] [µM]	TGI [5] [µM]	GI50 [6] [µM]	TGI [6] [µM]	GI50 [7] [µM]	TGI [7] [µM]	GI50 [8] [µM]	TGI [8] [µM]	GI50 [9] [µM]	TGI [9] [µM]	GI50 [10] [µM]	TGI [10] [µM]
Cc1ccc(-c2cc(O)c(-c3ccc(C)cc3C)cc2O)c(C)c1	7.17	22.4	11.7	42.2	9.37	21.9	10.8	25.5	8.17	23	15.4	30.1	5.1	> 100	6.23	> 100	10.2	24.6	3.57	74.9
O=S1Nc2c(Cl)cc(Cl)c(Cl)c2S1 (stereo not given)	–	> 100	–	> 100	–	> 100	–	> 100	–	> 100	–	> 100	–	> 100	–	> 100	–	> 100	–	> 100
OCCN1CCN(CC/C=C2/c3ccccc3Sc3ccc(Cl)cc32)CC1	–	27.9	–	28.8	–	23.5	–	3.38	–	29.7	–	28.3	–	8.65	–	26.8	–	23.3	–	34.3
CC[C@H](C)C(=O)O[C@H]1C[C@H](O)C=C2C=C[C@H](C)[C@H](CC[C@@H](O)C[C@@H](O)CC(=O)O)[C@H]21	> 100	> 100	> 100	> 100	> 100	> 100	> 100	> 100	> 100	> 100	> 100	> 100	> 100	> 100	> 100	> 100	> 100	> 100	> 100	> 100
Nc1c(C(=O)Nc2cccc(Cl)c2Cl)sc2nc3c(cc12)C(=O)CCC3	> 100	> 100	> 100	> 100	> 100	> 100	> 100	> 100	> 100	> 100	–	> 100	0.958	> 100	> 100	> 100	1.61	> 100	> 100	> 100
CC(=O)c1cc(O)c2ccccc2c1O	17.7	37.5	17	33.1	19.9	37.1	22.9	44.5	16.9	32.5	20.4	38.7	23.1	67.6	33.6	99.4	19	34.4	28	> 100
O=C(O)Cn1cc([N+](=O)[O-])c(=O)c2ccccc21	–	> 100	–	> 100	–	> 100	–	> 100	–	> 100	–	> 100	–	> 100	–	> 100	–	33.7	–	> 100
Cc1ccc(Sc2cc3c(oc2=O)-c2ccccc2OC3O)cc1 (stereo not given)	33.3	91.4	33.8	84.9	20.3	36.6	22.2	57.9	24.8	57.3	22.1	47.7	27.7	> 100	13.3	34.2	15	36.5	18.4	46.3
Cc1coc2c1C(OC(=O)C(C)C)C1(C)C(C)CCC(O)C1C2=O (stereo not given)	–	> 100	–	> 100	–	> 100	–	> 100	–	> 100	–	> 100	–	> 100	–	> 100	–	> 100	–	> 100
C[C@@H]1COCCN1c1cc(C2(O)C[C@H]3CC[C@@H](C2)O3)c2cnn(-c3ccn[nH]3)c2n1 (stereo not given in full)	0.0874	0.862	0.0515	1.01	< 0.0113	0.229	0.251	2.1	0.0316	0.353	0.0304	0.202	0.063	> 100	0.0437	> 67.3	0.253	2.52	0.0112	26.9
C[C@@H](Nc1nc(Nc2ccc(F)c(Cl)c2)nc2ccccc12)C1CC1	3.21	12.7	6.96	20.3	2.27	6.46	2.86	11.8	4.11	17.3	5.88	24.9	2.82	9.75	1.73	5.38	1.71	3.46	1.63	5.26
CCN(Cc1c(Cl)cccc1Cl)c1ccc(CO)c(Cl)c1	0.232	1.07	< 0.0238	0.0592	12.3	27.6	11.9	25.5	14.2	27.3	0.795	13.4	0.439	10.6	14.8	35.7	2.41	11.7	12.8	36.7
CCSc1ccc(C2C(Br)C(=O)N2c2cc(OC)c(OC)c(OC)c2)cc1 (stereo not given)	0.109	0.73	14.3	33.4	0.673	29.1	1.94	30	–	–	0.484	> 100	0.0545	> 100	0.347	88.9	0.23	0.823	0.0765	26.3
O=C(CCCCC(=O)N/N=C\c1ccccc1O)N/N=C\c1ccccc1O	3.87	> 100	6.4	> 100	3.87	> 100	–	–	3.53	> 100	6.66	> 100	3.92	> 100	3.01	> 100	3.67	> 100	2.84	> 100

Reference: PubChem BioAssay (NCI)
